In ChEMBL document CHEMBL3745645, “Synthesis, in vitro antitumor activity, dihydrofolate reductase inhibition, DNA intercalation and structure-activity relationship studies of 1,3,5-triazine analogues” (Bioorg Med Chem Lett, 2016):
Active and inactive are the calls of the source. The calls are words filed in the database; no cut-off is given here.

How the values were obtained:
CCRF-CEM [1] = assay: Cytotoxicity against human CCRF-CEM cells after 48 hrs by SRB assay; format: functional; conditions: for GI50 / TGI: pooled result: one value given for 6 cell lines, strains, targets or settings
[2] = Cytotoxicity against human DU145 cells at 10 uM after 48 hrs by SRB assay; format: functional; conditions: DU-145, 48 h, read-out: GI
786-0 [3] = assay: Cytotoxicity against human 786-0 cells at 10 uM after 48 hrs by SRB assay; format: functional; conditions: 786-0, 48 h, read-out: GI
[4] = Cytotoxicity against human SF268 cells after 48 hrs by SRB assay; format: functional; conditions: SF-268, 48 h, pooled result: one value given for 6 cell lines, strains, targets or settings
[5] = Cytotoxicity against human Hs 578T cells at 10 uM after 48 hrs by SRB assay; format: functional; conditions: read-out: GI
[6] = Cytotoxicity against human MOLT4 cells at 10 uM after 48 hrs by SRB assay; format: functional; conditions: MOLT-4, 48 h, read-out: GI
CCRF-CEM [7] = assay: Cytotoxicity against human CCRF-CEM cells at 10 uM after 48 hrs by SRB assay; format: functional
MCF7 = assay: Cytotoxicity against human MCF7 cells after 48 hrs by SRB assay; format: functional; conditions: MCF7, 48 h, pooled result: one value given for 6 cell lines, strains, targets or settings
Dihydrofolate reductase = biological target: T1, Dihydrofolate reductase (Homo sapiens, UniProt P00374); assay: Inhibition of human recombinant DHFR expressed in Escherichia coli by spectrophotometric analysis
T1 sequence (P00374 whole entry): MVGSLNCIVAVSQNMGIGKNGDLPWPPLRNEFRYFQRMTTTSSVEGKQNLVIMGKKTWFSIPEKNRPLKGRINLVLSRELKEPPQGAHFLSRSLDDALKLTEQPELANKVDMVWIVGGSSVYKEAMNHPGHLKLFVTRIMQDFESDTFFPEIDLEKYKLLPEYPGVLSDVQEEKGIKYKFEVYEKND

[8] = Cytotoxicity against human IGROV1 cells at 10 uM after 48 hrs by SRB assay; format: functional; conditions: IGROV-1, 48 h, read-out: GI
[9] = Cytotoxicity against human SKOV3 cells at 10 uM after 48 hrs by SRB assay; format: functional; conditions: SK-OV-3, 48 h, read-out: GI
Calf thymus DNA = assay: Binding affinity to calf thymus DNA assessed as melting temperature by spectrophotometric analysis (reference value: 60 degC); format: nucleic-acid assay; conditions: Bos taurus
NCI-H322M = assay: Cytotoxicity against human NCI-H322M cells at 10 uM after 48 hrs by SRB assay; format: functional; conditions: read-out: GI
[10] = Cytotoxicity against human RXF393 cells at 10 uM after 48 hrs by SRB assay; format: functional; conditions: RXF 393, 48 h, read-out: GI
NCI-H226 = assay: Cytotoxicity against human NCI-H226 cells at 10 uM after 48 hrs by SRB assay; format: functional; conditions: NCI-H226, 48 h, read-out: GI
[11] = Cytotoxicity against human SW620 cells at 10 uM after 48 hrs by SRB assay; format: functional; conditions: SW-620, 48 h, read-out: GI
A549 [12] = assay: Cytotoxicity against human A549 cells at 10 uM after 48 hrs by SRB assay; format: functional; conditions: A549, 48 h, read-out: GI
K562 [13] = assay: Cytotoxicity against human K562 cells at 10 uM after 48 hrs by SRB assay; format: functional; conditions: K562, 48 h, read-out: GI
[14] = Cytotoxicity against human OVCAR3 cells at 10 uM after 48 hrs by SRB assay; format: functional; conditions: OVCAR-3, 48 h, read-out: GI
[15] = Cytotoxicity against human SF268 cells at 10 uM after 48 hrs by SRB assay; format: functional; conditions: SF-268, 48 h, read-out: GI
[16] = Cytotoxicity against human MOLT4 cells after 48 hrs by SRB assay; format: functional; conditions: MOLT-4, 48 h, read-out: LC50 (the source's name)
Malme-3M = assay: Cytotoxicity against human MALME-3M cells at 10 uM after 48 hrs by SRB assay; format: functional
[17] = Cytotoxicity against human COLO205 cells at 10 uM after 48 hrs by SRB assay; format: functional; conditions: COLO 205, 48 h, read-out: GI
K562 [18] = assay: Cytotoxicity against human K562 cells after 48 hrs by SRB assay; format: functional; conditions: K562, 48 h
[19] = Cytotoxicity against human DU145 cells after 48 hrs by SRB assay; format: functional; conditions: DU-145, 48 h, read-out: LC50 (the source's name)
A498 = assay: Cytotoxicity against human A498 cells at 10 uM after 48 hrs by SRB assay; format: functional
[20] = Cytotoxicity against human LOXIMVI cells at 10 uM after 48 hrs by SRB assay; format: functional; conditions: LOX IMVI, read-out: GI
[21] = Cytotoxicity against human SF539 cells at 10 uM after 48 hrs by SRB assay; format: functional; conditions: SF-539, 48 h, read-out: GI
[22] = Cytotoxicity against human OVCAR5 cells at 10 uM after 48 hrs by SRB assay; format: functional; conditions: OVCAR-5, 48 h, read-out: GI
[23] = Cytotoxicity against human HL-60(TB) cells after 48 hrs by SRB assay; format: functional; conditions: HL-60, 48 h, read-out: LC50 (the source's name)
A549 [24] = assay: Cytotoxicity against human A549 cells after 48 hrs by SRB assay; format: functional; conditions: A549, 48 h, pooled result: one value given for 8 cell lines, strains, targets or settings
NCI-H522 = assay: Cytotoxicity against human NCI-H522 cells at 10 uM after 48 hrs by SRB assay; format: functional; conditions: NCI-H522, 48 h, read-out: GI
M14 = assay: Cytotoxicity against human M14 cells at 10 uM after 48 hrs by SRB assay; format: functional
786-0 [25] = assay: Cytotoxicity against human 786-0 cells after 48 hrs by SRB assay; format: functional; conditions: 786-0, 48 h, pooled result: one value given for 8 cell lines, strains, targets or settings
[26] = Cytotoxicity against human PC3 cells after 48 hrs by SRB assay; format: functional; conditions: PC-3, 48 h; for GI50 / TGI: pooled result: one value given for 2 cell lines, strains, targets or settings
[27] = Cytotoxicity against human SNB75 cells at 10 uM after 48 hrs by SRB assay; format: functional; conditions: SNB-75, 48 h, read-out: GI
SR [28] = assay: Cytotoxicity against human SR cells after 48 hrs by SRB assay; format: functional
SN12C = assay: Cytotoxicity against human SN12C cells at 10 uM after 48 hrs by SRB assay; format: functional; conditions: read-out: GI
[29] = Cytotoxicity against human LOXIMVI cells after 48 hrs by SRB assay; format: functional; conditions: LOX IMVI, pooled result: one value given for 9 cell lines, strains, targets or settings
HT-29 = assay: Cytotoxicity against human HT-29 cells at 10 uM after 48 hrs by SRB assay; format: functional
SR [30] = assay: Cytotoxicity against human SR cells at 10 uM after 48 hrs by SRB assay; format: functional

SMILES: Cc1nc2ccc(Nc3nc(NCCN4CCOCC4)nc(Nc4ccc(F)cc4)n3)cc2n1Cc1ccccc1
- LC50 (CCRF-CEM [1]): 55 µM
- GI50 (CCRF-CEM [1]): 1.96 µM
- TGI (CCRF-CEM [1]): 6.82 µM
- inhibition of growth at 10 µM [2]: 40.8%
- inhibition of growth at 10 µM (786-0 [3]): 95.8%
- GI50 [4]: 2.72 µM
- LC50 (concentration killing 50% of cells) [4]: 15.3 µM
- TGI [4]: 12 µM
- inhibition of growth at 10 µM [5]: 59.4%
- inhibition of growth at 10 µM [6]: 77.3%
- inhibition of growth at 10 µM (CCRF-CEM [7]; read-out: GI): 70.5%
- GI50 (MCF7): 2.04 µM
- LC50 (concentration killing 50% of cells) (MCF7): 20.6 µM
- TGI (MCF7): 8.99 µM
- IC50 (Dihydrofolate reductase): 0.002 µM
- inhibition of growth at 10 µM [8]: 31%
- inhibition of growth at 10 µM [9]: 21%
- Tm (Calf thymus DNA): 80.1 °C
- inhibition of growth at 10 µM (NCI-H322M): 35.9%
- inhibition of growth at 10 µM [10]: 88%
- inhibition of growth at 10 µM (NCI-H226): 27.9%
- inhibition of growth at 10 µM [11]: 57.6%
- inhibition of growth at 10 µM (A549 [12]): 53.7%
- inhibition of growth at 10 µM (K562 [13]): 97%
- inhibition of growth at 10 µM [14]: 26.3%
- inhibition of growth at 10 µM [15]: 37.2%
- CC50 [16]: 55 µM
- growth inhibition (GI) (Malme-3M): Active
- inhibition of growth at 10 µM [17]: 98.8%
- LC50 (K562 [18]): 55 µM
- CC50 [19]: 62.5 µM
- growth inhibition (GI) (A498): Active
- inhibition of growth at 10 µM [20]: 94.3%
- inhibition of growth at 10 µM [21]: 70.2%
- inhibition of growth at 10 µM [22]: 15.9%
- CC50 [23]: 55 µM
- GI50 (A549 [24]): 3.21 µM
- LC50 (A549 [24]): 38.5 µM
- TGI (A549 [24]): 18.5 µM
- inhibition of growth at 10 µM (NCI-H522): 41.3%
- growth inhibition (GI) (M14): Active
- GI50 (786-0 [25]): 3.03 µM
- LC50 (concentration killing 50% of cells) (786-0 [25]): 14.6 µM
- TGI (786-0 [25]): 19.3 µM
- LC50 [26]: 62.5 µM
- GI50 [26]: 4.41 µM
- TGI [26]: 43.9 µM
- inhibition of growth at 10 µM [27]: 49.4%
- LC50 (concentration killing 50% of cells) (SR [28]): 55 µM
- inhibition of growth at 10 µM (SN12C): 38.1%
- GI50 [29]: 1.91 µM
- LC50 [29]: 24.2 µM
- TGI [29]: 4.08 µM
- growth inhibition (GI) (HT-29): Active
- inhibition of growth at 10 µM (SR [30]; read-out: GI): 99.8%

SMILES: COc1ccc(-c2nc(Nc3ccc(F)cc3)nc(Nc3ccc4c(c3)nc(C)n4Cc3ccccc3)n2)cc1
- LC50 (CCRF-CEM [1]): > 100 µM
- GI50 (CCRF-CEM [1]): 3.37 µM
- TGI (CCRF-CEM [1]): 67.9 µM
- inhibition of growth at 10 µM [2]: 45.3%
- inhibition of growth at 10 µM (786-0 [3]): 53.3%
- GI50 [4]: 4.98 µM
- LC50 (concentration killing 50% of cells) [4]: > 100 µM
- TGI [4]: > 100 µM
- inhibition of growth at 10 µM [5]: 45.5%
- growth inhibition (GI) (CCRF-CEM [7]): Active
- GI50 (MCF7): 3.6 µM
- LC50 (concentration killing 50% of cells) (MCF7): > 100 µM
- TGI (MCF7): 23.4 µM
- IC50 (Dihydrofolate reductase): 0.32 µM
- inhibition of growth at 10 µM [8]: 63.6%
- inhibition of growth at 10 µM [9]: 23.2%
- Tm (Calf thymus DNA): 67.5 °C
- inhibition of growth at 10 µM (NCI-H322M): 17.6%
- inhibition of growth at 10 µM [10]: 64.3%
- inhibition of growth at 10 µM (NCI-H226): 33.4%
- inhibition of growth at 10 µM [11]: 54.3%
- inhibition of growth at 10 µM (A549 [12]): 68%
- inhibition of growth at 10 µM (K562 [13]): 83.4%
- inhibition of growth at 10 µM [14]: 49.5%
- inhibition of growth at 10 µM [15]: 53.1%
- CC50 [16]: > 100 µM
- inhibition of growth at 10 µM (Malme-3M; read-out: GI): 47.2%
- inhibition of growth at 10 µM [17]: 71.8%
- LC50 (K562 [18]): > 100 µM
- CC50 [19]: > 100 µM
- inhibition of growth at 10 µM (A498; A498, 48 h, read-out: GI): 27.3%
- inhibition of growth at 10 µM [20]: 61.1%
- inhibition of growth at 10 µM [21]: 32.2%
- inhibition of growth at 10 µM [22]: 11.9%
- CC50 [23]: > 100 µM
- GI50 (A549 [24]): 5.14 µM
- LC50 (A549 [24]): > 100 µM
- TGI (A549 [24]): 20.9 µM
- inhibition of growth at 10 µM (NCI-H522): 44.6%
- inhibition of growth at 10 µM (M14; M14, 48 h, read-out: GI): 61.1%
- GI50 (786-0 [25]): 3.4 µM
- LC50 (concentration killing 50% of cells) (786-0 [25]): > 100 µM
- TGI (786-0 [25]): 27.7 µM
- LC50 [26]: > 100 µM
- GI50 [26]: 5.35 µM
- TGI [26]: > 100 µM
- inhibition of growth at 10 µM [27]: 32%
- LC50 (concentration killing 50% of cells) (SR [28]): > 100 µM
- inhibition of growth at 10 µM (SN12C): 51.6%
- GI50 [29]: 4.43 µM
- LC50 [29]: > 100 µM
- TGI [29]: 31.2 µM
- inhibition of growth at 10 µM (HT-29; HT-29, 48 h, read-out: GI): 91.1%
- growth inhibition (GI) (SR [30]): Active
